According to ChEMBL document CHEMBL5236544, “Furazans in Medicinal Chemistry” (J Med Chem, 2021):
Values belong to the compound of their own block, whether it stands above or below them.

Legend:
Canis familiaris [1] = assay: Cardioprotective activity in dogs assessed as reduction in aortic pressure at 5.0 ug/kg, iv relative to control; type: functional, Canis lupus familiaris; design: scale not given: the % may be the effect or the level left
Lactate dehydrogenase = Lactate dehydrogenase (Plasmodium falciparum, UniProt Q0PJ46); assay: Inhibition of recombinant Plasmodium falciparum LDH
Chain of Lactate dehydrogenase (Q0PJ46 whole entry): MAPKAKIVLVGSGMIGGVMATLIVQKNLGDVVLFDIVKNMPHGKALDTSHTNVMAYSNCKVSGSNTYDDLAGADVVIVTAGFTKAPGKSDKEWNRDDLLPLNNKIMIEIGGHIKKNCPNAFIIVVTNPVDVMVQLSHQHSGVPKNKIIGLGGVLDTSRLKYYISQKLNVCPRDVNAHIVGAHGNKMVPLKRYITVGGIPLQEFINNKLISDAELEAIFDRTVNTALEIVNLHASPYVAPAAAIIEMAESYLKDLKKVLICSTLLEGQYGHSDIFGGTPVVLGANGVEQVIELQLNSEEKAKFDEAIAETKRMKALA

Plasmodium falciparum [2] = assay: Antimalarial activity against Plasmodium falciparum assessed as parasitic reduction at 100 mg/kg relative to control; type: functional; design: scale not given: the % may be the effect or the level left
[3] = Half life in mouse at 10 mg/kg, po; type: ADME, organism-based; conditions: in vivo
[4] = Inhibition of human recombinant LDH
[5] = Cmax in mouse at 100 mg/kg, ip; type: ADME, organism-based; design: dose 100 mg/kg, route ip; conditions: in vivo
[6] = Cmax in mouse at 100 mg/kg, po; type: ADME, organism-based; design: dose 100 mg/kg, route po; conditions: in vivo
Plasmodium falciparum [7] = assay: Antimalarial activity against drug sensitive Plasmodium falciparum 3D7; type: functional, organism-based
Plasmodium falciparum [8] = assay: Antimalarial activity against Plasmodium falciparum assessed as parasitic reduction at 10 mg/kg of chloroquine relative to control; type: functional; design: scale not given: the % may be the effect or the level left
[9] = Binding affinity to Plasmodium falciparum LDH assessed as inhibitory constant
[10] = Half life in mouse at 10 mg/kg, ip; type: ADME, organism-based; conditions: in vivo
HEL = assay: Antiproliferative activity against human HEL cells assessed as reduction in cell viability measured after 48 hrs by MTT assay; type: functional, cell-based
Jurkat = assay: Antiproliferative activity against human Jurkat cells assessed as reduction in cell viability measured after 48 hrs by MTT assay; type: functional, cell-based
[11] = Half life in mouse; type: ADME, organism-based; conditions: in vivo
K562 = assay: Antiproliferative activity against human K562 cells assessed as reduction in cell viability measured after 48 hrs by MTT assay; type: functional, cell-based; conditions: K562, 48 h
Plasmodium falciparum [12] = assay: Antimalarial activity against drug resistant Plasmodium falciparum KI; type: functional, organism-based
Caspase-3 = Caspase-3 (Homo sapiens, UniProt P42574); assay: Inhibition of caspase-3 (unknown origin)
Chain of Caspase-3 (P42574 29-175 limits assumed): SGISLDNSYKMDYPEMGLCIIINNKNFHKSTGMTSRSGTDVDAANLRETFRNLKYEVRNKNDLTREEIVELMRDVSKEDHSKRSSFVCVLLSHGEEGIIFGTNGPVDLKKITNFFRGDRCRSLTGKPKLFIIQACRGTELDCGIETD
Chain of Caspase-3 (P42574 176-277 limits assumed): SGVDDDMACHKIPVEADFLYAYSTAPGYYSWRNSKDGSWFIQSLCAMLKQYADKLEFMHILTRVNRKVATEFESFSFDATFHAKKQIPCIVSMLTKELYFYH

Caspase-8 = Caspase-8 (Homo sapiens, UniProt Q14790); assay: Inhibition of caspase-8 (unknown origin)
Chain of Caspase-8 (Q14790 217-374 limits assumed): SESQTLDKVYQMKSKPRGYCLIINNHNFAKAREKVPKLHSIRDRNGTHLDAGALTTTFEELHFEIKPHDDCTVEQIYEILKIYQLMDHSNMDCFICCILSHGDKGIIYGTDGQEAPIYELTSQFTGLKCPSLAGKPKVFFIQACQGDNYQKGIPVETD
Chain of Caspase-8 (Q14790 385-479 limits assumed): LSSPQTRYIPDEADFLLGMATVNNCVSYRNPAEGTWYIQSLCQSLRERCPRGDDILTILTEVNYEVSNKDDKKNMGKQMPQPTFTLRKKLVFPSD

Caspase-7 = Caspase-7 (Homo sapiens, UniProt P55210); assay: Inhibition of caspase-7 (unknown origin)
Chain of Caspase-7 (P55210 24-198 limits assumed): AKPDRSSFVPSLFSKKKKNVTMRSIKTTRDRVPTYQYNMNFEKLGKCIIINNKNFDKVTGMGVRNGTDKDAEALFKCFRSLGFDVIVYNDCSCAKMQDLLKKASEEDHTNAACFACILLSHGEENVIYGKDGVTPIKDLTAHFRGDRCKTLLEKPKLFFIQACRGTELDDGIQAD
Chain of Caspase-7 (P55210 207-303 limits assumed): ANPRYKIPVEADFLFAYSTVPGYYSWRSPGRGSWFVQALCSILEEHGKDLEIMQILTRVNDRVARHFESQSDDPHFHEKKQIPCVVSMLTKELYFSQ

[13] = Cmax in Malonate induced Huntington disease […] model at 1.5 nmol administered intra striatal measured for 1 hr by LC/MS-MS analysis; type: ADME; design: time 1 hrs, dose 1.5 nmol; conditions: in vivo
[14] = Half life in Malonate induced Huntington disease rat; type: ADME; conditions: in vivo
Caspase-1 = Caspase-1 (Homo sapiens, UniProt P29466); assay: Inhibition of caspase-1 (unknown origin)
Chain of Caspase-1 (P29466 120-297 limits assumed): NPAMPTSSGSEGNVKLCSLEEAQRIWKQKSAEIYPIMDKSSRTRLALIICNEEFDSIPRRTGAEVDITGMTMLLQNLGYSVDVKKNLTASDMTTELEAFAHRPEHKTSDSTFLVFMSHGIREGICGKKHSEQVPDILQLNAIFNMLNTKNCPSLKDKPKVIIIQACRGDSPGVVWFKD
Chain of Caspase-1 (P29466 317-404 limits assumed): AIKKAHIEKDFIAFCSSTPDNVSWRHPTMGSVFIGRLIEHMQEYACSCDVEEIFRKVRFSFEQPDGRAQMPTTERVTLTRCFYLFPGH

NT2 = assay: Inhibition of camptothecin induced apoptosis in human NT2 cells incubated for 5 hrs in presence of camptothecin by ELISA method; type: functional, cell-based; conditions: NT2, 5 h
[15] = Drug concentration in ipsilateral striatum of malonate induced huntington disease rat measured after 24 hrs by LC/MS-MS analysis; type: ADME, tissue-based; conditions: read-out: Ct
[16] = Drug concentration in ipsilateral striatum of malonate induced huntington disease rat measured after 6 hrs by LC/MS-MS analysis; type: ADME, tissue-based; conditions: read-out: Ct
Mus musculus = species: Mus musculus; assay: Anti-inflammatory activity in LPS-induced inflammatory mouse model assessed as reduction in neutrophil influx; type: functional
Rattus norvegicus [17] = species: Rattus norvegicus; assay: Anti-inflammatory activity against ovalbumin induced lung inflammatory rat model assessed as reduction in eosinophil influx; type: functional
[18] = Anti-inflammatory activity against human PBMCs assessed as reduction in LPS-induced TNF-alpha release by ELISA analysis; type: functional, cell-based; conditions: PBMC
[19] = target: 3',5'-cyclic-AMP phosphodiesterase 4D (Homo sapiens, UniProt Q08499); assay: Inhibition of human recombinant PDE4D
Chain of 3',5'-cyclic-AMP phosphodiesterase 4D (Q08499 whole entry): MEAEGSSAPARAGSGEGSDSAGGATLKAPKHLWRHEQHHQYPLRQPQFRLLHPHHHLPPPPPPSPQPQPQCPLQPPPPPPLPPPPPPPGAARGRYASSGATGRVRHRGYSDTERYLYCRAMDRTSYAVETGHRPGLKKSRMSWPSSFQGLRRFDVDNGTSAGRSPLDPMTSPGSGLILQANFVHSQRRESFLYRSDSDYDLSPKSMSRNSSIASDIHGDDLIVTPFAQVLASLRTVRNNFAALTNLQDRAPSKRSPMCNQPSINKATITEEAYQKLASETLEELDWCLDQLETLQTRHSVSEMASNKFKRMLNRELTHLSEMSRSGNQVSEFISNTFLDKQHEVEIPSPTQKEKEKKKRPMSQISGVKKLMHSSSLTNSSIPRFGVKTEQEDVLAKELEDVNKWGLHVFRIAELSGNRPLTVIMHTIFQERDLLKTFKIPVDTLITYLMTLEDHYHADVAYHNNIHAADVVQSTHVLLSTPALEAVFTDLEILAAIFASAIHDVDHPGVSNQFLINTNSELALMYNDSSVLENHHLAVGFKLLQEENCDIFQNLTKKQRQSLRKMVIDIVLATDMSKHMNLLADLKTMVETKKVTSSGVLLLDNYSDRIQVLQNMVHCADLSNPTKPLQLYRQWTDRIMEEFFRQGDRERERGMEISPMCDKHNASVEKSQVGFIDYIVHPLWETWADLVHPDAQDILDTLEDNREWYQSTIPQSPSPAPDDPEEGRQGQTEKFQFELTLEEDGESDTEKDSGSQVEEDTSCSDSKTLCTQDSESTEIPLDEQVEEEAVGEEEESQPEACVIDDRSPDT

[20] = target: Amyloid-beta precursor protein (Homo sapiens, UniProt P05067); assay: Inhibition of amyloid beta (unknown origin) aggregation at 5 uM relative to control
Chain of Amyloid-beta precursor protein (P05067 whole entry): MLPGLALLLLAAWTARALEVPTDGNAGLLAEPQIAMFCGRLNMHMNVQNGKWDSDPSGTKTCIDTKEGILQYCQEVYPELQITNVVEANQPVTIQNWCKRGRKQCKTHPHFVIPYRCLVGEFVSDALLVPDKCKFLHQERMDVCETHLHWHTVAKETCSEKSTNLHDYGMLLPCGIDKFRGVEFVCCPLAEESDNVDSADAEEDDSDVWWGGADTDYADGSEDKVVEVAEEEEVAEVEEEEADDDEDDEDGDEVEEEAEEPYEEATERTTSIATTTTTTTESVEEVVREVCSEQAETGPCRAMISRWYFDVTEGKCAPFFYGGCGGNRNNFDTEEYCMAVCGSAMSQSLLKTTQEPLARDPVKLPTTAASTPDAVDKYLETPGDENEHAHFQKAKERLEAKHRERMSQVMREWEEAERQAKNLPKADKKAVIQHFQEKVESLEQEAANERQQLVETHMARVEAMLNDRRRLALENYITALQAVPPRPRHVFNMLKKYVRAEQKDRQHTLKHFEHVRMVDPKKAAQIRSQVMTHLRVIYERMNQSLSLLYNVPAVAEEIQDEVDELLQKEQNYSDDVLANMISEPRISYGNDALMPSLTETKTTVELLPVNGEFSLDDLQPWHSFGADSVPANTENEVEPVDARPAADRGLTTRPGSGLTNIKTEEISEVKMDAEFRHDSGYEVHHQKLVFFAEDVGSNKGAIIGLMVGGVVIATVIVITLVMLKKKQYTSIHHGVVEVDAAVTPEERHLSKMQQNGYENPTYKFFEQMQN

[21] = target: Ribosomal protein S6 kinase alpha-1 (Homo sapiens, UniProt Q15418); assay: Inhibition of RSK1 (unknown origin)
Chain of Ribosomal protein S6 kinase alpha-1 (Q15418 whole entry): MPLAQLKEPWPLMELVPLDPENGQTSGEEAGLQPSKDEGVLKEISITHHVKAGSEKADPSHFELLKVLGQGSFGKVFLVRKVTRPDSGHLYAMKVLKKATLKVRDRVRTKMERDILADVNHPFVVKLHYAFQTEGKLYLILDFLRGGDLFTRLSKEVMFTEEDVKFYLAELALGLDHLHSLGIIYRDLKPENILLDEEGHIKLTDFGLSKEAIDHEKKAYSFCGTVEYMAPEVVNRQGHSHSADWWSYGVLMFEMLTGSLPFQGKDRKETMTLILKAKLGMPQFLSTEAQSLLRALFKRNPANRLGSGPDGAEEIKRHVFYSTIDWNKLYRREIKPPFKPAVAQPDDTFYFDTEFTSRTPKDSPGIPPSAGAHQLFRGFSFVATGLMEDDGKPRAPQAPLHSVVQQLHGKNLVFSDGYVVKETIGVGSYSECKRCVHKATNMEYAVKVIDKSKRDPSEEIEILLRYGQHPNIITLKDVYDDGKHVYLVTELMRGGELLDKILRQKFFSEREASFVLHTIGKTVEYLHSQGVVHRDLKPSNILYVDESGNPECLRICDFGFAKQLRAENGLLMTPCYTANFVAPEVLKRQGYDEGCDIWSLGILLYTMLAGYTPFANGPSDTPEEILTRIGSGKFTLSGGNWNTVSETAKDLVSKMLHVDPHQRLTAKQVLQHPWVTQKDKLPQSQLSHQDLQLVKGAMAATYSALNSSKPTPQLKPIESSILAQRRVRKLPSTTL

[22] = Inhibition of p70S6K (unknown origin); design: species or system Homo sapiens
[23] = Inhibition of GSK3 (unknown origin); design: species or system Homo sapiens
Canis familiaris [24] = assay: Cardioprotective activity in dogs assessed as increasing in coronary blood flow at 5.0 ug/kg, iv relative to control; type: functional, Canis lupus familiaris; conditions: dose 5 µg/kg
Canis familiaris [25] = assay: Cardioprotective activity in dogs assessed as increasing in coronary blood flow at […], iv relative to control; type: functional, Canis lupus familiaris
Canis familiaris [26] = assay: Cardioprotective activity in dogs assessed as reduction in aortic pressure at […], iv relative to control; type: functional, Canis lupus familiaris; design: scale not given: the % may be the effect or the level left
Rattus norvegicus [27] = assay: Antihypertensive activity in spontaneously hypertensive rat model assessed as change in heart rate at 1 mmol/Kg, po measured after 10 hrs; type: functional
Rattus norvegicus [28] = assay: Antihypertensive activity in spontaneously hypertensive rat model assessed as change in blood pressure at 1 mg/kg, po measured after 10 hrs; type: functional
Rattus norvegicus [29] = assay: Antihypertensive activity in spontaneously hypertensive rat model assessed as change in blood pressure at 1 mg/kg, po measured after 3 hrs; type: functional
Rattus norvegicus [30] = assay: Antihypertensive activity in spontaneously hypertensive rat model assessed as change in heart rate at 10 mg/Kg, po measured after 6 hrs; type: functional
Rattus norvegicus [31] = assay: Antihypertensive activity in spontaneously hypertensive rat model assessed as change in heart rate at 1 umol/kg, po measured after 3 hrs; type: functional
[32] = Inhibition of HIF (unknown origin); design: species or system Homo sapiens
physchem = conditions: octanol/water
Description: Lipophilicity, log P of the compound

[33] = Binding affinity to human wild type HIF2alpha assessed as dissociation constant by calorimetry assay
[34] = Inhibition of MAPK p38 (unknown origin); design: species or system Homo sapiens
[35] = Inhibition of LPS induced TNF-alpha secretion in human THP-1 cells pretreated with LPS for 1 hr followed by compound addition and measured after 3 hrs by ELISA method; type: functional, cell-based

SMILES: CC1(C)Oc2ccc(C#N)cc2[C@@H](N2CCCC2=O)[C@@H]1O [LEVCROMAKALIM]
Activity (Canis familiaris [1]): -11.2%

IC50 (Lactate dehydrogenase): 1.1 µM
half-life [3]: 1.6 h
IC50 [4]: 54 µM
Cmax [5]: 158 µM
Cmax [6]: 153 µM
EC50 (Plasmodium falciparum [7]): 74.4 µM
EC90 (Plasmodium falciparum [7]): > 200 µM
half-life [10]: 1.1 h
SMILES: O=C(O)c1conc1O
Activity (Plasmodium falciparum [2]): 30%
Activity (Plasmodium falciparum [8]): 100%
Ki [9]: 0.47 µM

EC50 (Jurkat): > 1 µM
half-life [11]: 0.7 h
EC50 (K562): > 100 µM
SMILES: CC1(C)CC[C@]2(C(=O)O)CC[C@]3(C)C(=CC[C@@H]4[C@@]5(C)CC[C@H](O)C(C)(C)[C@@H]5CC[C@]43C)[C@@H]2C1 [OLEANOLIC_ACID]
EC50 (HEL): > 1 µM

SMILES: O=C(O)c1nsnc1O
EC50 (Plasmodium falciparum [12]): 144 µM
IC50 (Lactate dehydrogenase): 0.14 µM
IC50 [4]: 10.3 µM
EC50 (Plasmodium falciparum [7]): 75.3 µM
EC90 (Plasmodium falciparum [7]): > 170 µM
Ki [9]: 0.29 µM

IC50 (Caspase-3): 0.006 µM
IC50 (Caspase-8): 6.48 µM
IC50 (Caspase-7): 0.042 µM
Cmax [13]: 32.2 µM
half-life [14]: 3 h
IC50 (Caspase-1): 0.067 µM
EC50 (NT2): 0.021 µM
concentration at 24 h [15]: 0.1 µM
concentration at 6 h [16]: 5.1 µM
SMILES: CCCCCCN(C)CC(=O)C(CC(=O)O)NC(=O)[C@H](CC)n1cc(C(C)(C)C)nc(NCc2nonc2C)c1=O (stereo not given in full)

EC50 [18]: 0.126 µM
IC50 [19]: 0.041 µM
SMILES: O=C(O)[C@H]1CC[C@H](c2cc3cccnc3c(-c3cccc(F)c3)n2)CC1
ED50 (Mus musculus): 0.032 µmol/kg
ED50 (Rattus norvegicus [17]): 0.0034 µmol/kg

inhibition [20]: 57.1%
SMILES: OC(c1cccc(-c2cc(NCc3ccccc3)c3nonc3c2)c1)C(F)(F)F (stereo not given)

EC50 (Jurkat): 0.29 µM
half-life [11]: 1.5 h
EC50 (K562): 0.78 µM
SMILES: CC1(C)CC[C@]2(C(=O)O)CC[C@]3(C)C(=CC[C@@H]4[C@@]5(C)Cc6nonc6C(C)(C)[C@@H]5CC[C@]43C)[C@@H]2C1
EC50 (HEL): > 0.21 µM

IC50 [21]: 0.155 µM
IC50 [22]: 0.27 µM
IC50 [23]: 1.9 µM
SMILES: CCn1c(-c2nonc2N)nc2cncc(CNC3CCNCC3)c21

IC50 [21]: 0.024 µM
IC50 [22]: 0.07 µM
IC50 [23]: 0.033 µM
SMILES: CCn1c(-c2nonc2N)nc2cnccc21

SMILES: CC1(C)Oc2cc3nonc3cc2[C@@H](N2CCCCC2=O)[C@@H]1O
Activity (Canis familiaris [24]): 33.3%
Activity (Canis familiaris [25]): 34.3%
Activity (Canis familiaris [26]): -7.5%

SMILES: CCn1c(-c2nonc2N)nc2cnc(Oc3cccc(NC(=O)c4ccc(OCCN5CCOCC5)cc4)c3)cc21 [GSK-269962A]
Activity (Rattus norvegicus [27]): 0 bpm
Activity (Rattus norvegicus [28]): 0 mmHg
Activity (Rattus norvegicus [29]): -20 mmHg
Activity (Rattus norvegicus [30]): 10 bpm
Activity (Rattus norvegicus [31]): 30 bpm

IC50 [32]: 0.1 µM
logP (physchem): 3.99
Kd [33]: 0.08 µM
SMILES: O=[N+]([O-])c1c(Nc2cc(F)cc(Cl)c2)ccc2nonc12

IC50 [34]: 6.3 µM
EC50 [35]: 1.8 µM
SMILES: Cc1ccc(Cl)cc1Nc1ccc([N+](=O)[O-])c2nonc12

EC50 (NT2): > 100 µM
SMILES: CC(=O)N[C@@H](CC(=O)O)C(=O)N[C@@H](CCC(=O)O)C(=O)N[C@H](C(=O)N[C@H](C=O)CC(=O)O)C(C)C
